The test system of one data set is CT26 murine colon tumor. The data set is described as follows: Efficacy in syngeneic CT26 murine colon tumor model. It is filed as in vivo, mouse (Balb/c). Conditions: Day 11; Balb/c mice with s.c. CT26 tumors; BNC105 10 mg/kg Days 1 and 8; anti-CTLA4 (Clone 9D9) 10 mg/kg i.p. Days 2, 5, 9. On the procedure:
The present inventors conducted a separate study to determine the efficacy of BNC105 in combination with the immune-oncology therapeutic antibody anti-CTLA4 in the syngeneic CT26 murine colon tumor model. BNC105 (10 mg/kg) was administered on Days 1 and 8, the anti-CTLA4 antibody (Clone 9D9) was administered at 10 mg/kg i.p. on Days 2, 5, and 9. Balb/c mice were inoculated subcutaneously with C1′26 cells. When tumors reached an average volume of approximately 135 mm3 animals were randomised into 5 groups of 10 mice per group.
1. Saline+PBS control 2. Saline+IgG2b isotype control, antibody 3. BNC105P+IgG2b isotype control antibody 4. Saline+anti-CTLA4 antibody 5. BNC105P+anti-CTLA4 antibody
The in-life part of this study was completed on Day 12 of the treatment period due to tumor sizes in the control groups reaching ethical limits. Tumors were collected for both FAGS analysis and for histology. FAGS analysis and histology arc currently in progress and aim to identify changes of immune T-cell populations following treatment.

Data set [1] relates to tumor vasculature (Renca). Description: Vascular stain perfusion in murine orthotopic model of Renal Cancer (Renca). Conditions: perfusion of a vascular stain. It is filed as in vivo. The text has this: In a murine orthotopic model of Renal Cancer (Renca) the present inventors have shown using perfusion of a vascular stain that tumor blood vessels arc obliterated after BNC105 treatment compared to normal tissue which remains unaffected.

Data set [2] has as its system tumor infiltrating macrophages (CD11b+). Description: Number of tumor infiltrating macrophages. Type of data set: in vivo. The settings on record: after treatment, monotherapy and combination (FIG. 5). The source says: FIG. 5. Reduction in the number of tumor infiltrating macrophages (CD11b+) after treatment with BNC105 (monotherapy and combination).
This reduction would dramatically change the immune environment potentially releasing the immune dampening effect of macrophage subsets.

For the next data set, the system named is CD3+/CD8+ cells. The data set is described as follows: Tumoral CD3+/CD8+ cells. The settings on record: in vivo. The text has this: (§1) BNC105 primes the immunogenic potential of a tumor with increased tumoral IFNγ content compared to control treated animals (FIG. 3). IFNγ is secreted from CD4+ Th1, CD8+ and Th0 cells and activated NK cells.
A further data set has as its system IFNγ. The data set is described as follows: Tumoral levels of IFNγ. It is filed as in vivo. The settings on record: 16 mg/kg BNC105 versus saline (FIG. 3). The protocol: FIG. 3. Tumoral levels of IFNγ in animals administered with saline or 16 mg/kg BNC105.
as §1

The next data set deals with MC38 murine colon tumor. Description: Efficacy in syngeneic MC38 murine colon tumor model. Type of data set: in vivo, mouse (C57/BL6). The settings on record: Day 17; C57/BL6 mice with s.c. MC38 tumors; BNC105P 10 mg/kg i.v. Day 1, 8, 15; anti-PD1 (Clone RMP1-14) 3.5 mg/kg i.p. Day 1, 4, 8, 12, 16. The protocol: The present inventors conducted a study to determine the efficacy of BNC105 in combination with the immunotherapeutic anti-PD1 antibody in the syngeneic MC38 murine colon tumor model. BNC105P was administered at 10 mg/kg i.v., on Day 1, 8 and 15, anti-PD1 antibody (Clone RMP1-14) was administered at 3.5 mg/kg i.p. on Day 1, 4, 8, 12 and 16. C57/BL6 mice were inoculated subcutaneously with MC38 cells. When tumors reached a volume of approximately 100-150 mm3 animals were randomised into groups of 10 mice per group.
1. Saline+PBS control 2. Saline+IgG2a isotypc control antibody 3. BNC105P+IgG2a isotype control antibody 4. Saline+anti-PD1 antibody 5. BNC105P+anti-PD1 antibody
The in-life pan of this study was completed on Day 18 of the treatment period due to tumor size in the control groups reaching the ethical limit. Tumors and blood were collected for FACS analysis and also tumors were collected for histology. FACS analysis and histology is currently under way and is aimed at identifying changes of immune T-cell populations following treatment.

In another data set the test system is IL-12 subunit p40. The data set is described as follows: Plasma biomarker analysis, Phase II mesothelioma trial (Multi-Analyte Profile). It is filed as in vivo, human. The settings on record: patients, BNC105 16 mg/m2 monotherapy. The protocol: FIG. 4. Changes in levels of IL-12 p40 and II: 10 following administration with BNC105. Phase II Mesothelioma trial BNC105 (16 mg/m2) number of patients=19. Blood draws were pre-specified and optional. Patients receiving BNC105 alone received blood draws prior to BNC105 administration and 3 hours following administration. Plasma samples were used to determine exploratory analytes using Multi-Analyte Profile (MAP) technology (Myriad RBM). Graph showing % change from baseline. Percent change was calculated as analyse plasma concentration (post-baseline)/baseline*100. Mean±SEM shown on graph.
The balance between pro-inflammatory and anti-inflammatory signals provided by different immune cell populations is crucial for normal physiology and the suppression of cancer development. By altering this homeostasis an opportunity is provided for the immune system to alter the way it responds. Biomarker analysis on patient samples was conducted from a Phase II BNC105 monotherapy mesothelioma trial. […] The immune-modulatory cytokine IL-12 subunit p40, a key member of the IL-12 cytokine family, has emerged as a potent inducer of antitumor immunity. IL-12 subunit p40 is secreted by activated macrophages and serves as an essential inducer of Th1 cells development.

Each structure is given as a SMILES string.

In the case of `COc1cc(C(=O)c2c(C)oc3c(O)c(OC)ccc23)cc(OC)c1OC` [BNC105, 2-methyl-7-hydroxy-3-(3,4,5-trimethoxybenzoyl)-6-methoxybenzofuran], the tumor growth inhibition in the data set with CT26 murine colon tumor amounted to 27%. In data set [1], the “normal tissue vasculature after treatment” value is on record as “unaffected” and the “tumor blood vessels after treatment” value is recorded as “obliterated”. In data set [2], the “number of tumor infiltrating macrophages (CD11b+)” value is recorded as “significant reduction”. For the same compound, the “change in tumoral CD3+/CD8+ cells” value in the data set with CD3+/CD8+ cells is listed as “No change”. Also, in the data set with IFNγ, the “tumoral IFNγ content compared to control treated animals” value is reported as “increased”. Besides, in the data set on MC38 murine colon tumor, the “tumor growth inhibition (TGI)” value came out at 40%. Besides, the “plasma IL-12 subunit p40 post administration” value in the data set on IL-12 subunit p40 (3 hours following administration versus baseline) is listed as “significantly increases”. The “plasma IL-12 subunit p40 at Day 8 post dosing” value in the data set on IL-12 subunit p40 (Day 8) was “remains elevated”.

`COc1cc(C(=O)c2c(C)oc3c(OP(=O)([O-])[O-])c(OC)ccc23)cc(OC)c1OC.[Na+].[Na+]` [BNC105P, di sodium [6-methoxy-2-methyl-3-(3,4,5-trimethoxybenzoyl)-1-benzofuran-7-yl] phosphate]: in the data set with CT26 murine colon tumor, the tumor growth inhibition is reported as 27%. Moreover, in the data set on MC38 murine colon tumor, the “tumor growth inhibition (TGI)” value is recorded as 40%.

For the origin of these results see patent publication US20210069147A1, “PHARMACEUTICAL COMBINATION AND USES THEREOF” (BIONOMICS LIMITED, priority 2015, published 2021).
